Assay results published in patent publication US8858968B2, “Use of tyrosine-arginine dipeptide and niacinamide as substance P antagonist” (L'Oreal, priority 2005, dated 2014).
Ends that are not written are not given here.

Legend:
[1] = tested on: human skin kept under survival conditions; test: Histological evaluation of the average surface area of the capillaries in human skin kept under survival conditions, stimulated with substance P; format: cell-based; conditions: for effect on surface area / dilatation of the dermal capillaries (in words): compared with substance P-treated skin and control skin; for Percentage of dilated dermal capillaries: substance P 10 μM in culture medium, niacinamide 0.5%, dipeptide 0.1% (b140 prints the reverse), mean +/− spread
Protocol: The activity of each of the active agents and of the combination thereof is evaluated in a model of human skin kept under survival conditions. After several hours of re-equilibration of the skin with culture medium (antibiotic+SVF), the culture medium is renewed and substance P at 10 (M, with or without each of the active agents or the combination thereof, is (are) added to the culture medium. […] Morphometric analysis of the surface area (μm^2) occupied by the lumen of the vessels is carried out by microscopic observation from sections: the skin fragments are fixed in Bouin's solution and embedded in paraffin and then stained with haemalun-eosine. The vascular dilatation is evaluated by counting the number of dilated vessels over the entire histological section (16 fields at 40×magnification). This analysis makes it possible to determine the average surface area (μm^2) occupied by the vessels in the dermis.

[2] = tested on: human skin kept under survival conditions; test: Histological evaluation of dermal oedema (semi-quantitative score) on the skin sections of Example 1; format: cell-based; conditions: for effect on dermal oedema (in words): compared with substance P-stimulated skin and control skin; for Dermal oedema score (0-3): human skin explant, substance P 10 μM, niacinamide 0.5%, dipeptide 0.1% (b140 prints the reverse), mean +/− spread
Protocol: The activity of each of the active agents and of the combination thereof is evaluated in a model of human skin kept under survival conditions. […] Using the sections prepared in Example 1, the oedema is evaluated by means of semi-quantitative scores: • score 0: no oedema • score 1: very slight oedema • score 2: moderate oedema • score 3: considerable oedema

**Q.** Which “effect on surface area / dilatation of the dermal capillaries (in words)” value [1] does the source give for `NC(=O)c1cccnc1` [niacinamide, pyridine-3-carboxamide] here?
**A.** back to a state corresponding to the control

**Q.** And the “Percentage of dilated dermal capillaries” value ([1]; human skin explant)?
**A.** 108 +/− 27.6

**Q.** And the “effect on dermal oedema (in words)” value [2]?
**A.** back to a state corresponding to the control

**Q.** What about the “Dermal oedema score (0-3)” value [2] of the same compound?
**A.** 1.03 +/− 0.64

**Q.** Which results are given for “N-acetyl-tyrosine-arginine-decahexyl ester [dipeptide]”?
**A.** effect on surface area / dilatation of the dermal capillaries (in words) [1]: back to a state corresponding to the control; Percentage of dilated dermal capillaries ([1]; human skin explant): 103.16 +/− 34; effect on dermal oedema (in words) [2]: back to a state corresponding to the control; Dermal oedema score (0-3) [2]: 1 +/− 0.6

**Q.** Which results are given for “substance P: polypeptide (undecapeptide) produced and released by a nerve ending; used at 10 μM as stimulus (RPKPQQFFGLM; ends and bridges not checked; UniProt P20366 58-68, looked up)”?
**A.** Percentage of dilated dermal capillaries ([1]; human skin explant): 161.6 +/− 56.6; increase in the surface area compared with the normal skin ([1]; substance P at 10 μM): 63%; average surface area occupied by the vessels in the dermis ([1]; substance P at 10 μM, human skin explant): 161.6+/−56.6 μm^2; Dermal oedema score (0-3) [2]: 1.9 +/− 0.7; increase in the oedema score ([2]; treatment with substance P versus control skin): 121%; oedema score ([2]; treatment with substance P, score 0-3): 1.9+/−0.64
